Results from patent US20080274213A1, “Drug for Ameliorating Male Climacteric Disorders” (WAKUNAGA PHARMACEUTICAL CO., LTD., priority 2004, published 2008).

System: restraint stress-loaded ddY male mice
Assay: Test on inhibition of reduction in blood testosterone concentration (restraint stress-loaded mice)
Assay type: in vivo
Conditions: tested likewise, dose of the components not given
Procedure: The Codonopsis lanceolata extract obtained in Example 1 was used to investigate inhibitory effect on reduction in blood testosterone concentration caused by aging and stress according to the following procedures: seven-month-old ddY male mice (10 mice per group) were orally given 1 g/kg of the test substance once a day over 2 weeks. On the last administration day, the mice were loaded with restraint stress after 1 hour of test substance administration. The restraint stress loading was performed by wrapping soft wire nets around the mouse bodies and allowing the mice to abstain from food and drink for 16 hours (17:00 to 9:00). Immediately after the termination of the loading, their blood testosterone concentrations were measured. A significant difference test used was the Student's t-test.

Row | Compound | inhibitory effect on reduction in blood testosterone concentration (isolated components)
1 | CC1OC(OC2C(OC(=O)[C@]34CCC(C)(C)C[C@@]3(C)C3=CCC5[C@@]6(C)CC[C@H](OC7OC(C(=O)O)C(O)C(O)C7O)C(C)(C)C6CC[C@@]5(C)[C@]3(C)C[C@H]4O)OCC(O)C2O)C(O)C(O)C1OC1OCC(O)C(OC2OCC(O)C(O)C2O)C1O (some centres unmarked) [lancemaside-A] | the inhibitory effect was also observed
2 | tangshenoside I | the inhibitory effect was also observed
